{
  "source": "patent US20090054491A1",
  "about": "“Use” (AstraZeneca AB, priority 2005, published 2009)",
  "system": "Female C57Bl6 mice",
  "assay": "Pharmacodynamic effect in mouse (intake of bland and palatable paste after fasting, body weight change)",
  "type": "in vivo",
  "procedure": "Female C57Bl6 mice (19-21 g) are singly housed for 7-days with ad libitum access to a “bland-paste” made from normal laboratory chow (R-3 Lactanin, Vadstena, Sweden) or to a “palatable-paste” of similar consistency containing oatmeal, butter, sugar, cocoa powder, cocoa butter and peanut butter. The day before the experimental day, food is removed for 12 hours. O the experiment day, animals are weighed and compound or vehicle is administered. Animals are returned to their home cages and given access to weighed amounts of both bland and palatable pastes. This food is then re-weighed 2, and optionally 4 and 6 hours later, and consumption of each food type calculated by the difference from initial food weight. Animals are further weighed at 24 hours after administration, and change in body weight over the treatment period is calculated.",
  "data": [
    {"smiles": "COCc1cc(C#N)cc(-c2nc(-c3ccc(F)cn3)no2)c1", "note": "[3-[3-(5-fluoropyridin-2-yl)-1,2,4-oxadiazol-5-yl]-5-(methoxymethyl)benzonitrile]", "values": [
      {"measurement": "body weight recovery after fasting", "setting": "compared to vehicle treated animals, FIG. 2", "value": "slower body weight recovery"},
      {"measurement": "effect on normal laboratory chow (intake)", "setting": "measured 2 hours after treatment, bland paste, fasted mice, FIG. 1", "value": "no effect"},
      {"measurement": "intake of sweets", "setting": "measured 2 hours after treatment, palatable paste, fasted mice, FIG. 1", "value": "decreased intake of sweets measured 2 hours after treatment in a dose-related manner"}
    ]}
  ]
}
